# From US20030083271A1, “Topoisomerase I selective cytotoxic sugar derivatives of indolopyrrolocarbazoles” (priority 2001, published 2003)
# Marks after values point to notes of the source that are not given here.
# What was measured:
# [1] = tested on: P388 murine leukemia cells; test: In vitro cell-based cytotoxicity, parental P388 cells; conditions: Mus musculus, 72 h, median cytotoxic concentration, 3 days continuous exposure
# Outline: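 P388 cells plated at 8,000 cells/well, compounds serially diluted 24 h later and incubated 72 h at 37° C. Viability by MTS (333 μg/ml final) with phenazine methosulfate (25 μM final), absorbance at 492 nm; IC50 is concentration reducing absorbance to 50% of untreated control.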
# HT-29 colon carcinoma = test: In vivo antitumor activity, HT-29 xenograft; parameters: species or system Balb/c athymic (nude) female mice; conditions: for LCK (gross log cell kill): HT29 sc xenograft in nude mice, at optimal or maximum tolerated dose, CPT-11 run as comparator in same experiment; for MTD (optimal or maximum tolerated dose level tested): HT29 xenograft experiment, nude mice
# Procedure: Compounds: Examples of this invention were administered in an appropriate vehicle such as cremophor/ethanol/water (10%/10%/80%), in normal saline, water/carboxymethylcellulose vehicle.
# All compounds were tested at several dose levels, with attempts each time to achieve their maximum tolerated dose (MTD). […] The optimal dose (OD) was the dose producing the best therapeutic effect, and was usually, but not always, synonymous with the MTD.
# Tumors: Human tumors (HCT-116 and HT-29 colon carcinomas) were grown as xenografts in Balb/c athymic (nude) female mice. Antitumor assays. All tumors were implanted subcutaneously (sc) as 3-4mm fragments using a 13 gauge trochar. There were generally eight mice per treatment and control group. When treatment was delayed until tumors had obtained a certain size (weight), referred to as a staged tumor experiment (expt.), tumor-bearing mice were selected so that their tumors fell within a limited range of sizes for the particular expt.
# Tumors were measured by calipers, and tumor weight calculated by the formula length (mm) times (×) width (mm)^2/2=tumor weight (mg). The median time (in days) to reach a predetermined tumor target size (for example, 500 mg) for untreated, control (C) mice relative to the time to reach the same target size for treated (T) mice, was calculated as a T-C value. T-C values were divided by the tumor volume doubling time (TVDT), and multiplied by 3.32, to yield a gross log cell kill (LCK) value, [i.e., (T-C)/TVDT×3.32=LCK].
# A mouse was considered cured if there was no palpable tumor after a period of time equal to 10×TVDT post-reatment (Rx).
# P388/CPT45 cells = test: Cytotoxicity in camptothecin-resistant P388/CPT45 cells relative to parental P388 (selectivity index R/S); type: cell-based, murine; conditions: IC50 P388/CPT45 cells divided by IC50 parental P388 cells
# Outline: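 Murine P388 leukemia cells and their camptothecin-resistant P388/CPT45 subline were plated at 8,000 cells/well and exposed to serial compound dilutions for 72 h at 37 °C. Viability was read by MTS/PMS reduction at 492 nm, with IC50 taken against untreated cells. R/S is the P388/CPT45 IC50 divided by the parental P388 IC50.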
smiles,measurement,setting,value
"O=C1NC(=O)c2c1c1c3cc(F)c(F)cc3sc1c1c2c2cc(F)c(F)cc2n1[C@@H]1O[C@H](CF)C[C@H](O)[C@H]1O [Example 9, 12-[4,6-Dideoxy-6-fluoro-β-D-glucopyranosyl]-2,3,9,10-tetrafluoro-5H, 13H-benzo[b]thienyl[2,3-a]pyrrolo[3,4-c]carbazole-5,7(6H)-dione]",IC50,[1],35 nM
same,LCK (gross log cell kill),HT-29 colon carcinoma,>1.4
same,MTD (optimal or maximum tolerated dose level tested),HT-29 colon carcinoma,>22 mpkpi
same,Selectivity Index R/S,P388/CPT45 cells,120.2
"O=C1NC(=O)c2c1c1c3cc(F)ccc3[nH]c1c1c2c2cc(F)ccc2n1[C@@H]1O[C@H](CO)[C@@H](F)[C@H](O)[C@H]1O [Example 24, 12-[4-Deoxy-4-fluoro-β-D-glucopyranosyl]-3,9-difluoro-12,13-dihydro-5H-indolo[2,3-a]pyrrolo[3,4-c]carbazole-5,7(6H)-dione]",IC50,[1],2 nM
same,LCK (gross log cell kill),HT-29 colon carcinoma,2.1
same,MTD (optimal or maximum tolerated dose level tested),HT-29 colon carcinoma,15 mpkpi
same,Selectivity Index R/S,P388/CPT45 cells,379.0
"O=C1NC(=O)c2c1c1c3cc(F)c(F)cc3sc1c1c2c2cc(F)c(F)cc2n1[C@@H]1O[C@H](CF)[C@@H](F)[C@H](O)[C@H]1O [Example 26, 12-[4,6-Difluoro-4,6-dideoxy-β-D-glucopyranosyl]-2,3,9,10-tetrafluoro-5H, 13H-benzo[b]thienyl[2,3-a]pyrrolo[3,4-c]carbazole-5,7(6H)-dione]",IC50,[1],11 nM
same,LCK (gross log cell kill),HT-29 colon carcinoma,1.4
same,MTD (optimal or maximum tolerated dose level tested),HT-29 colon carcinoma,>9 mpkpi
same,Selectivity Index R/S,P388/CPT45 cells,387.8
O=C1NC(=O)c2c1c1c3cc(F)ccc3[nH]c1c1c2c2cc(F)ccc2n1[C@@H]1O[C@H](CF)[C@@H](F)[C@H](O)[C@H]1O [Example 27],IC50,[1],4 nM
same,LCK (gross log cell kill),HT-29 colon carcinoma,1.9^a
same,MTD (optimal or maximum tolerated dose level tested),HT-29 colon carcinoma,11 mpkpi
same,Selectivity Index R/S,P388/CPT45 cells,448.4
"O=C1NC(=O)c2c1c1c3cc(F)c(F)cc3sc1c1c2c2cc(F)c(F)cc2n1[C@@H]1O[C@H](CO)[C@@H](F)[C@H](O)[C@H]1O [Example 33, 12-[4-Deoxy-4-fluoro-β-D-glucopyranosyl]-2,3,9,10-tetrafluoro-5H,13H-benzo[b]thienyl[2,3-a]pyrrolo[3,4-c]carbazole-5,7(6H)-dione]",IC50,[1],< 3 nM
same,LCK (gross log cell kill),HT-29 colon carcinoma,>2.3^b
same,MTD (optimal or maximum tolerated dose level tested),HT-29 colon carcinoma,11 mpkpi
same,Selectivity Index R/S,P388/CPT45 cells,>1657.6
